Test results published in patent publication US20120058133A1, “INHIBITION OF TRNA SYNTHETASES AND THERAPEUTIC APPLICATIONS THEREOF” (President and Fellows of Harvard College, priority 2009, published 2012).

Tests used:
[1] = test system: amino acid starvation response pathway; test: Amino acid starvation response (eIF2α phosphorylation, ATF4, AAR genes) in T cells; type: cell-based, mouse; details: for eIF2α phosphorylation and ATF4 expression: 1 μg/ml tunicamycin
Experimental: FIG. 4C is a graph depicting results of quantitative real-time PCR performed on cDNA generated from unstimulated naïve T cells or those activated for 4 hours in the presence of 10 nM MAZ1310 or 10 nM HF. Asns, Gpt2 or eIF4Ebp1 mRNA expression was normalized to Hprt levels and data are presented as mean values ±SD in duplicate samples.
FIG. 4D depicts western blot analysis of purified CD4^+ CD25^− T cells either unstimulated, or TCR-activated without exogenous cytokines in the presence of DMSO, 40 nM MAZ1310 or titrating concentrations of HF (1.25-40 nM). Whole cell lysates were prepared 4 hours-post TCR activation and immunoblotting was performed with the indicated antibodies. ATF4 protein is indicated by arrowhead. NS—non-specific band.
FIG. 4E depicts western blot analysis of purified CD4^+ CD25^− T cells activated through the TCR for the indicated times without exogenous cytokines in the presence of either 10 nM MAZ1310 or 10 nM HF as indicated. Whole cell lysates were prepared during the timecourse and immunoblotting was performed.
FIG. 4F depicts western blot analysis of CD4^+ CD25^− T cells either left unstimulated or were TCR-activated in the absence or presence of the indicated polarizing cytokine conditions and 10 nM MAZ1310 or 10 nM HF as indicated. Whole cell lysates were generated 4 hours after activation and immunoblotting was performed. Microarray data were generated from three independent experiments and all other data are representative of at least two similar experiments.
(§1) FIG. 5. […] FIG. 5A depicts western blot and Xbp1 splicing analysis of CD4^+ CD25^− T cells left unstimulated, or activated through the TCR for 4 hours in complete medium (complete—200 μM Cys/100 μM Met), medium lacking Cys/Met (−Cys/Met) or complete medium containing 1 μg/ml tunicamycin, 10 nM HF or 10 nM MAZ1310. Western blotting was performed on whole cell extracts with the indicated antibodies. Xbp-1 splicing assay was performed on cDNA synthesized from T cell cultures.
T cells were activated as described above, collected at the indicated times and pellets were flash-frozen in liquid nitrogen. Total RNA was obtained by RNeasy (Quiagen—Valencia, Calif.) column purification per manufacturers instructions. RORγt expression was determined after reverse transcription using the message sensor kit (Ambion—Austin, Tex.) per the manufacturer's instructions and taqman primers and probe as described elsewhere (Ivanov et al., Cell 126:1121, 2006). Sybrgreen quantitative real-time PCR was performed on T cell RNA samples following reverse transcription via SuperScript II first-strand cDNA synthesis kit (Invitrogen—Carlsbad, Calif.). All PCR data was collected on an iCycler thermal cycler (Biorad—Hercules, Calif.). Primer sequences used for detecting stress response genes are listed below.
Whole cell lysates were generated from T cells activated for the indicated times. For STAT3 and Smad2/3 western blots cells were harvested, washed in PBS and lysed in 50 mM Tris, pH 7.4, 0.1% SDS, 1% Triton-X 100, 140 mM NaCl, 1 mM EDTA, 1 mM EGTA supplemented with protease inhibitors tablets (Roche—Germany), 1 mM NaF and 1 mM Na3VO4. For eIF2α and ATF4 western blots, cells were harvested as above and lysed in 50 mM Tris, pH 7.4, 2% SDS, 20% glycerol and 2 mM EDTA supplemented with protease and phosphatase inhibitors as above. All lysates were cleared via centrifugation and 15-30 μg of protein was resolved by SDS-PAGE. Protein was transferred to nitrocellulose membranes, blocked and blotted using specific antibodies. Antibodies used for western blot analysis were anti-phospho-Smad2, anti-STAT3 (pY705), anti-STAT3, anti-eIF2α^ps51, anti-eIF2α (all from cell signaling technology—Danvers, Mass.). Anti-ATF4/CREB2 and anti-β-actin were purchased from Santa Cruz Biotechnology (Santa Cruz, Calif.). HRP-conjugated secondary antibodies were all purchased from Sigma, with the exception of HRP-conjugated anti-armenian hamster antibody (Jackson Immunoresearch—West Grove, Pa.). […]

Xbp-1 splicing = test: ER stress / unfolded protein response (Xbp-1 splicing) in T cells; type: cell-based, mouse; details: for Xbp-1 splicing: TCR activation 4 hours, 1 μg/ml tunicamycin, 10 nM HF
Experimental: as §1

[2] = TCR activation 4 hours, 10 nM HF

## O=C(CC1NCCCC1O)Cn1cnc2cc(Br)c(Cl)cc2c1=O (racemic) [HF, halofuginone]
[1]; 10 nM HF
  time to maximum eIF2α phosphorylation: ≤ 2 h
  time until which ATF4 protein continued to accumulate: 4 h
[1]; 10 nM HF, 4 hours
  ATF4 expression in differentiated and naïve T cells: induced ATF4 expression in all differentiated T cells, but not in naïve T cells
  eIF2α phosphorylation in resting naïve T cells and ThN, Th1, Th2, iTreg, Th17 conditions: induced eIF2α phosphorylation
[1]; 10 nM HF, within 4 hours of T cell activation
  AAR-associated genes (Asns, Gpt2, eIF4Ebp1) by qPCR: induced
[1]; 10 nM halofuginone, 1 mM amino acid
  effect of added proline on HF-induced eIF2alpha phosphorylation: blocked by added proline
[1]; 10 nM, TCR activation 4 hours
  eif2alpha Ser51 phosphorylation in wild type and GCN2−/− T cells: leads to phosphorylation of Ser51 of eif2alpha only in wild type cells and not in GCN2^−/− cells
[1]; 4 hours post TCR activation
  concentration at which eIF2α phosphorylation plateaued: 5 to 10 nM
  concentration giving detectable eIF2α phosphorylation: 2.5 nM
  concentration with highest ATF4 expression levels: 5 to 10 nM
  concentrations at which ATF4 expression was reduced: 20 to 40 nM
[1]; [2]
  eIF2α phosphorylation and ATF4 expression: inducing eIF2α phosphorylation
Xbp-1 splicing
  expression of hallmark ER stress response genes: did not induce
  Xbp-1 splicing: without promoting Xbp-1 splicing

## tunicamycin
[1]; [2]
  eIF2α phosphorylation and ATF4 expression: induced eIF2α phosphorylation and ATF4 expression
Xbp-1 splicing
  Xbp-1 splicing: together with Xbp-1 splicing
